{"source": "patent US20050153276A1", "about": "(priority 2001, published 2005)", "origin": "cited, not measured here", "test_system": "human hepatocyte and neuroblastoma cells", "conditions": "cited from earlier work"}
{"smiles": "CCOP(=S)(OCC)Oc1ccc([N+](=O)[O-])cc1", "note": "[parathion]", "values": [{"measurement": "effect on cell metabolism (acidification rate)", "result": "opposite effects on hepatocyte and neuroblastoma cell metabolism"}]}
{"smiles": "CCOP(=O)(OCC)Oc1ccc([N+](=O)[O-])cc1", "note": "[paraoxon]", "values": [{"measurement": "effect on cell metabolism (acidification rate)", "result": "opposite effects on hepatocyte and neuroblastoma cell metabolism"}]}
